Measured values: PMC6237158, “HPLC–UV assay for the evaluation of inhibitors of plasma amine oxidase using crude bovine plasma” (Journal of Enzyme Inhibition and Medicinal Chemistry, 2018)
Where two headings read alike, the source gives them in different places.

How the values were obtained:
[1] = biological target: T1, PAO in bovine plasma (Bos taurus, UniProt Q29437); experiment: Conversion of amine substrates by bovine plasma (HPLC-UV); type: biochemical; conditions: substrate 250 µM, 6 µL bovine plasma in final volume 100 µL; mean ± SD, n = 3
T1 construct: crude bovine plasma can be used as enzyme source in this assay instead of the purified enzyme; tissue Coesfelder Fleischhandelsgesellschaft, Bernd Grewe (Coesfeld, Germany); host or cells: heparinised bovine blood plasma
T1 sequence (Q29437 17-762): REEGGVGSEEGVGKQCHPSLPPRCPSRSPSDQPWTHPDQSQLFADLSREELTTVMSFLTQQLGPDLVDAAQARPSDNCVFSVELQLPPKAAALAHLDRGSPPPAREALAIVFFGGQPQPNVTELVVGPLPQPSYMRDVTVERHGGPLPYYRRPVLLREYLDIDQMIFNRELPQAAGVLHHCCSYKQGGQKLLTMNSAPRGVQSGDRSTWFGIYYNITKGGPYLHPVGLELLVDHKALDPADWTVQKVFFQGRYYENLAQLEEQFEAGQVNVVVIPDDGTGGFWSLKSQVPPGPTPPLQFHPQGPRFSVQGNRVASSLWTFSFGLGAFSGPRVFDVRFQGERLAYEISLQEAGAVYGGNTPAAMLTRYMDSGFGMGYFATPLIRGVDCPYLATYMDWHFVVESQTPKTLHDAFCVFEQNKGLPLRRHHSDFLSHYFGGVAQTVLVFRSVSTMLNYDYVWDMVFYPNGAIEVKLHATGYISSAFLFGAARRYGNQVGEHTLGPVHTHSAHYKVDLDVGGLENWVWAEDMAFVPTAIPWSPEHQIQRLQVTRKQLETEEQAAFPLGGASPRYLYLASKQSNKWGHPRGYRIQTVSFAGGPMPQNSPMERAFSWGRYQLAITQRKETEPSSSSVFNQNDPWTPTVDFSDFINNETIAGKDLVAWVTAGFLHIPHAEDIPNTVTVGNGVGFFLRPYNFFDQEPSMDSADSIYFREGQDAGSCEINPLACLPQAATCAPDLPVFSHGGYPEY
Experimental: Determination of the conversion rates of different amine substrates by bovine plasma. The conversion rates of the amine substrates 1–7 to the corresponding aldehydes 8–14 by bovine plasma was measured as described previously, with the modification that the solution of the isolated PAO in PBS (0.19 mg/mL) (95 µL) was replaced by PBS (89 µL) and bovine plasma (6 µL).

[2] = biological target: T2, purified bovine PAO (Bos taurus, UniProt Q29437); design: method as in PMID 27129976, PMID 29550344; conditions: substrate 250 µM, 18 µg purified PAO in final volume 100 µL; mean ± SD, n = 3; cited from earlier work
T2 construct: bovine PAO purified from bovine plasma; purchased Abnova, Taipei, Taiwan delivered via Biozol, Eching, Germany; host or cells: bovine plasma
T2 sequence (Q29437 17-762): T1 sequence (Q29437 17-762)

[3] = biological target: T2, purified bovine PAO; experiment: Inhibition of purified bovine PAO without pre-incubation (HPLC-UV); type: biochemical; conditions: substrate 3-(5-phenyl-2H-tetrazol-2-yl)propan-1-amine (1), n = 3
Experimental: Determination of the IC50-values of the PAO inhibitor 2-(4-phenylphenyl)acetohydrazide (16) with bovine plasma using different substrates. The IC50-values were measured as described previously (without pre-incubation),[33] with the modification that the solution of the isolated PAO in PBS (0.19 mg/mL) (95 µL) was replaced by PBS (89 µL) and bovine plasma (6 µL).
To evaluate the comparability of inhibition data obtained with the purified enzyme and the crude plasma, we measured the inhibition values of the known PAO inhibitor 2-(4-phenylphenyl)acetohydrazide (16) (for formula see Table 3) using the different amine substrates 1–7. In these experiments, the enzyme was added to a solution containing both substrate and inhibitor. Thus, no pre-incubation of enzyme with the inhibitor took place. […] This may be due to the binding of the inhibitor to plasma proteins leading to a somewhat reduced effective concentration. In addition, consistent differences in the apparent inhibitory potency of the inhibitor 16 in dependence of the substrate applied could be registered for both enzyme preparations. The reason for these fluctuating values lies in strongly different binding affinities of the substrates to the enzyme as discussed recently. […]

[4] = biological target: T1, PAO in bovine plasma; experiment: Inhibitor screening without pre-incubation of bovine plasma with the inhibitor (HPLC-UV); type: biochemical; conditions: n = 3
Experimental: Determination of the IC50-values of the PAO inhibitor 2-(4-phenylphenyl)acetohydrazide (16) with bovine plasma using different substrates.
General procedure for inhibitor screening without pre-incubation of bovine plasma with the inhibitor. A mixture of a DMSO solution of 4 (10 mM) (2.5 µL), a DMSO solution of the appropriate inhibitor (concentration variable) (2.5 µL) and PBS buffer (pH 7.4) (89 µL) was treated with bovine plasma (6 µL). After incubation at 37 °C for 45 min, the enzyme reaction was terminated by the addition of acetonitrile (100 µL). The sample was cooled in an ice bath for 10 min and centrifuged at 12,000 × g and 10 °C for 5 min. An aliquot of the supernatant (150 µL) was diluted with aqueous TRIS buffer (100 mM, pH 8.5 at 20 °C) (150 µL), allowed to stand at room temperature for 30 min, and analysed by HPLC. The HPLC–UV-system consisted of a Thermo Scientific Dionex UltiMate 3000 system including an autosampler and a variable wavelength detector (ThermoFisher Scientific, Germering, Germany). Separation was achieved on a Luna 3 u C8(2) analytical column (3 mm inside diameter× 150 mm, particle size 3 µm) (Phenomenex, Aschaffenburg, Germany) protected with a Phenomenex Phenyl guard column (3 mm inside diameter ×4 mm). The injection volume was 50 µL. Temperature of the autosampler was set to 10 °C, the temperature of the column oven was 20 °C. HPLC analysis was run isocratically using acetonitrile/aqueous TRIS buffer (50 mM, pH 8.5 at 20 °C) (35:65, v/v) as eluent at a flow rate of 0.4 mL/min. […] Controls with DMSO (2.5 µL) instead of a DMSO solution of the inhibitor (2.5 µL) were prepared in the same manner in parallel (n = 3). Furthermore, a blank incubation, in which the enzyme solution was replaced by the buffer used for dissolving the enzyme, was carried out. The relative inhibition values were determined at different inhibitor concentrations and calculated as the ratio of the areas of the 1,3-oxazolidine 15 peaks formed in presence and absence of the test compounds (corrected by the blank value). […] The experiments using benzylamine (7) as substrate were carried out in the same way with the modifications that aliquots (150 µL) of the supernatants obtained after addition of acetonitrile and centrifugation were diluted with water (150 µL) and acetonitrile/aqueous ammonium acetate solution (10 mM, pH 6) (45:55, v/v) was used as eluent at a detection wavelength of 250 nm.

[5] = biological target: T1, PAO in bovine plasma; experiment: Inhibitor screening with pre-incubation of bovine plasma with the inhibitor (HPLC-UV); type: biochemical; conditions: for IC50: with pre-incubation of enzyme and inhibitor (15 min, 37 °C), n = 3; for block of substrate transformation, bovine plasma: 10 µM, pre-incubation conditions
Experimental: General procedure for inhibitor screening with pre-incubation of bovine plasma with the inhibitor. To a DMSO solution of the appropriate inhibitor (concentration variable) (2.5 µL) was added a dilution of bovine plasma in PBS (95 µL), prepared by mixing 89 volume parts of PBS with 6 volume parts of bovine plasma. The resulting mixture was pre-incubated at 37 °C for 15 min. Then the incubation was started at 37 °C by addition of a solution of the substrate 4 (10 mM) in DMSO (2.5 µL). After 45 min, the enzyme reaction was terminated by the addition of acetonitrile (100 µL). The samples were further treated and analysed as described above in the inhibition experiments done without pre-incubation. Controls (n = 3) and a blank were prepared analogously. The experiments using benzylamine (7) as substrate were carried out in the same way with the modifications that aliquots (150 µL) of the supernatants obtained after addition of acetonitrile and centrifugation were diluted with water (150 µL), and acetonitrile/aqueous ammonium acetate solution (10 mM, pH 6) (45:55, v/v) was used as eluent at a detection wavelength of 250 nm.

[6] = biological target: T2, purified bovine PAO; design: method as in PMID 27129976; conditions: without pre-incubation, n = 3, cited from earlier work
[7] = biological target: T3, purified PAO (Bos taurus, UniProt Q29437); design: method as in PMID 29550344; conditions: after pre-incubation 15 min, read-out: IC50, purified enzyme, cited from earlier work
T3 construct: we used the enzyme isolated and purified from bovine plasma; host or cells: bovine plasma
T3 sequence (Q29437 17-762): T1 sequence (Q29437 17-762)

[8] = biological target: T3, purified PAO; experiment: Inhibition of purified PAO after pre-incubation of enzyme with inhibitor; type: biochemical, bovine; conditions: 10 µM; pre-incubation conditions
Description: 2-(4-Phenylphenyl)acetohydrazide (16) is known to inhibit PAO by forming covalent bonds with the cofactor topaquinone.
Finally, we wanted to confirm that the amine oxidases MAO A, MAO B, and DAO are not involved in substrate conversion by bovine plasma using specific inhibitorsof these enzymes.

[9] = tested on: MAO A; design: method as in PMID 29550344; conditions: 0.1 µM; pre-incubation conditions; cited from earlier work
[10] = tested on: DAO; design: method as in PMID 29550344; conditions: 10 µM; pre-incubation conditions; cited from earlier work
[11] = substrate benzylamine (7), without pre-incubation of enzyme and inhibitor
[12] = substrate hexan-1-amine 4, without pre-incubation of enzyme and inhibitor

NCCCn1nnc(-c2ccccc2)n1 [Compound 1, 3-(5-Phenyl-2H-tetrazol-2-yl)propan-1-amine]
Conversion of substrate, Bovine plasma [1]: 5 ± 0.8% | Conversion of substrate, Purified PAO [2]: 12 ± 0.8%

NCCCCn1nnc(-c2ccccc2)n1 [Compound 2, 4-(5-Phenyl-2H-tetrazol-2-yl)butan-1-amine]
Conversion of substrate, Bovine plasma [1]: 66 ± 5.6% | Conversion of substrate, Purified PAO [2]: 55 ± 2.6%

NCCCCCn1nnc(-c2ccccc2)n1 [Compound 3, 5-(5-Phenyl-2H-tetrazol-2-yl)pentan-1-amine]
Conversion of substrate, Bovine plasma [1]: 51 ± 4.3% | Conversion of substrate, Purified PAO [2]: 45 ± 1.3%

NCCCCCCn1nnc(-c2ccccc2)n1 [Compound 4, 6-(5-Phenyl-2H-tetrazol-2-yl)hexan-1-amine]
Conversion of substrate, Bovine plasma [1]: 51 ± 1.5% | Conversion of substrate, Purified PAO [2]: 57 ± 1.4%

NCCCCCCCn1nnc(-c2ccccc2)n1 [Compound 5, 7-(5-Phenyl-2H-tetrazol-2-yl)heptan-1-amine]
Conversion of substrate, Bovine plasma [1]: 23 ± 2.1% | Conversion of substrate, Purified PAO [2]: 30 ± 1.1%

NCCCCCCCCn1nnc(-c2ccccc2)n1 [Compound 6, 8-(5-Phenyl-2H-tetrazol-2-yl)octan-1-amine]
Conversion of substrate, Bovine plasma [1]: 26 ± 1.8% | Conversion of substrate, Purified PAO [2]: 25 ± 1.2%

NCc1ccccc1 [Compound 7, Benzylamine]
Conversion of substrate, Bovine plasma [1]: 30 ± 2.0% | Conversion of substrate, Purified PAO [2]: 20 ± 2.1%

NNC(=O)Cc1ccc(-c2ccccc2)cc1 [Compound 16, 2-(4-phenylphenyl)acetohydrazide]
IC50 [3]: 53000 ± 3000 nM | IC50 ([4]; substrate 4-(5-phenyl-2H-tetrazol-2-yl)butan-1-amine (2), without pre-incubation): 5300 ± 490 nM | IC50 ([4]; substrate 5-(5-phenyl-2H-tetrazol-2-yl)pentan-1-amine (3), without pre-incubation): 9700 ± 780 nM | IC50 ([4]; substrate 8-(5-phenyl-2H-tetrazol-2-yl)octan-1-amine (6), without pre-incubation): 16000 ± 3400 nM | IC50 [4, 11]: 290 ± 70 nM | IC50 [4, 12]: 17000 ± 800 nM | IC50 ([5]; substrate benzylamine): 130 ± 30 nM | IC50 ([5]; substrate hexan-1-amine 4): 230 ± 40 nM | IC50 ([6]; substrate 4-(5-phenyl-2H-tetrazol-2-yl)butan-1-amine (2)): 2500 ± 300 nM | IC50 ([6]; substrate 5-(5-phenyl-2H-tetrazol-2-yl)pentan-1-amine (3)): 5400 ± 90 nM | IC50 ([6]; substrate 6-(5-phenyl-2H-tetrazol-2-yl)hexan-1-amine (4)): 11000 ± 1200 nM | IC50 ([6]; substrate 8-(5-phenyl-2H-tetrazol-2-yl)octan-1-amine (6)): 11000 ± 850 nM | IC50 ([6]; substrate benzylamine (7)): 120 ± 30 nM | IC50 ([7]; substrate 4): 290 nM | IC50 ([7]; substrate benzylamine): 110 nM

NNC(=O)Cc1cccc(-c2ccccc2)c1 [Compound 18, 2-(3-Phenylphenyl)acetohydrazide]
IC50 [4, 11]: 620 ± 50 nM | IC50 [4, 12]: 20000 ± 1000 nM | IC50 ([5]; substrate benzylamine): 240 ± 30 nM | IC50 ([5]; substrate hexan-1-amine 4): 380 ± 20 nM

C#CCN(C)CCCOc1ccc(Cl)cc1Cl [clorgiline]
block of substrate transformation, bovine plasma [5]: neither of these compounds blocked the substrate transformation | block of substrate transformation, purified PAO [8]: neither of these compounds blocked the substrate transformation | reduction of MAO A activity [9]: more than 95%

NC(=Nc1ccccc1)NC(=O)c1nc(Cl)c(N)nc1N [phenamil]
block of substrate transformation, bovine plasma [5]: neither of these compounds blocked the substrate transformation | block of substrate transformation, purified PAO [8]: neither of these compounds blocked the substrate transformation | inhibition of DAO [10]: 43%

C#CCN(C)[C@H](C)Cc1ccccc1 [selegiline]
block of substrate transformation, bovine plasma [5]: neither of these compounds blocked the substrate transformation | block of substrate transformation, purified PAO [8]: neither of these compounds blocked the substrate transformation
